Non-standard residues stand in square brackets, D forms with d. Residues, ends and D or L forms follow the SMILES beside them. *: point of attachment. Bip = N[C@@H](Cc1ccc(-c2ccccc2)cc1)C(=O)O; NMeT = CN[C@H](C(=O)O)[C@@H](C)O; OBn = c1ccc(CO*)cc1; Bn = c1ccc(C*)cc1
Target: T1, Solute carrier family 15 member 1 (Homo sapiens, UniProt P46059)
T1 sequence (P46059 whole entry): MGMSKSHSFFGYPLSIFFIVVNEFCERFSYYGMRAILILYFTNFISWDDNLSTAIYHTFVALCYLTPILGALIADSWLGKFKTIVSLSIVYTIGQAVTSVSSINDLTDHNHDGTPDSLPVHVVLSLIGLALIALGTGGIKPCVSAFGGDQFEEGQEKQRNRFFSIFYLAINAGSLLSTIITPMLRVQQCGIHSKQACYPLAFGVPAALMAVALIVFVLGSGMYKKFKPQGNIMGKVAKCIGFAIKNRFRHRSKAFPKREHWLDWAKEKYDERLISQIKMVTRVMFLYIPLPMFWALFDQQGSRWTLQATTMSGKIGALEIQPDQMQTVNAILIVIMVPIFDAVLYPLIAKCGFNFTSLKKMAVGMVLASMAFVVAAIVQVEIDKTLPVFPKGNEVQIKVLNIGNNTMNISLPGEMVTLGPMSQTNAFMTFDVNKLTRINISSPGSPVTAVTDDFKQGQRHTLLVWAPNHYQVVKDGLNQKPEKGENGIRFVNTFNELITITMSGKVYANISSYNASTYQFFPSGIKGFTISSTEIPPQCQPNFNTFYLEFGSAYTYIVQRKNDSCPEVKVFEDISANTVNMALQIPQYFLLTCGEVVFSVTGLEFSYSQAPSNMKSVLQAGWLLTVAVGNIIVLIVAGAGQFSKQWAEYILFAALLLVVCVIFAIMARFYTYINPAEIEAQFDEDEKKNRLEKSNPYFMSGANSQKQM
Experiment: Binding affinity against membrane transport protein PEPT1 in human Caco-2 cells
Assay type: cell-based

## [N-]=[N+]=N[C@H](C(=O)NC1C(=O)N2C(C(=O)O)=CCSC12)c1ccccc1 (stereo partly specified)
  Ki: 15000 µM

## C[C@H](N)C(=O)N[C@@H](C)C(=O)N[C@@H](C)C(=O)O
  Ki: 180 µM

## C[C@H](N)C(=O)N[C@@H](C)C(=O)N[C@H](C)C(=O)O
  Ki: 8300 µM

## C[C@@H](N)C(=O)N[C@H](CCCCN)C(=O)O
  Ki: > 30000 µM

## C[C@H](N)C(=O)NC(=O)C1CCCCC1
  Ki: 1500 µM

## C[C@H](NC(=O)[C@@H](N)Cc1ccc(OCc2ccccc2)cc1)C(=O)O
  Ki: 90 µM

## C[C@H](N)C(=O)N[C@@H](CCCCN)C(=O)O
  Ki: 210 µM

## C[C@H](N)C(=O)N[C@H](CCCCN)C(=O)O
  Ki: > 30000 µM

## C[C@H](NC(=O)[C@H](Cc1ccccc1)NCc1ccccc1)C(=O)O
  Ki: 20 µM

## C[C@H](N)C(=O)N[C@H](Cc1ccccc1)C(=O)N[C@@H](C)C(=O)O
  Ki: 19000 µM

## C[C@H](N)C(=O)N[C@H](C)C(=O)N[C@@H](C)C(=O)O
  Ki: 17000 µM

## CC(C)[C@H](N)C(=O)N1CCC[C@H]1C(=O)N1CCC[C@@H]1C(=O)O
caco-2
  Ki: 4300 µM

## C[C@H](NC(=O)[C@H](C)NOC(=O)[C@@H](C)N)C(=O)O
  Ki: 7900 µM

## C[C@@H](N)C(=O)N[C@@H](CCCCN)C(=O)O
  Ki: 7000 µM

## N[C@@H](Cc1c[nH]c2ccccc12)C(=O)NCC(=O)N[C@@H](Cc1ccc(O)cc1)C(=O)O
  Ki: 240 µM

## C[C@@H](N)C(=O)N1CCC[C@H]1C(=O)O
  Ki: 5000 µM

## CC(C)C[C@H](NC(=O)[C@H](Cc1ccccc1)NC(=O)[C@H](C)N)C(=O)O (H-Ala-Phe-Leu-OH)
  Ki: 100 µM

## CC(C)C[C@H](NC(=O)[C@@H]1CCCN1C(=O)[C@H](C)N)C(=O)O (H-Ala-Pro-Leu-OH)
  Ki: 150 µM

## C[C@H](NC(=O)[C@@H](N)CC(=O)OCc1ccccc1)C(=O)O (H-Asp(OBn)-Ala-OH)
  Ki: 90 µM

## NCCCC[C@H](NC(=O)[C@@H](N)CC(=O)O)C(=O)O (H-Asp-Lys-OH)
  Ki: 860 µM

## NCCCC[C@H](NC(=O)[C@@H](N)CCC(=O)O)C(=O)O (H-Glu-Lys-OH)
  Ki: 510 µM

## N[C@@H](CCC(=O)O)C(=O)N[C@@H](Cc1ccccc1)C(=O)N[C@@H](Cc1ccc(O)cc1)C(=O)O (H-Glu-Phe-Tyr-OH)
  Ki: 200 µM

## NCC(=O)N[C@@H](Cc1c[nH]cn1)C(=O)O (H-Gly-His-OH)
  Ki: 4100 µM

## CC[C@H](C)[C@H](N)C(=O)N[C@@H](Cc1ccc(O)cc1)C(=O)O (H-Ile-Tyr-OH)
  Ki: 120 µM

## CC[C@H](C)[C@H](N)C(=O)N[C@H](C(=O)N[C@@H](Cc1ccc(O)cc1)C(=O)O)C(C)C (H-Ile-Val-Tyr-OH)
  Ki: 200 µM

## CC(C)C[C@H](N)C(=O)N[C@@H](C)C(=O)N[C@@H](CCCNC(=N)N)C(=O)O (H-Leu-Ala-Arg-OH)
  Ki: 110 µM

## CC(C)C[C@H](N)C(=O)N[C@@H](CCCN=C(N)N)C(=O)N1CCC[C@H]1C(=O)O (H-Leu-Arg-Pro-OH)
  Ki: 300 µM

## CC(C)C[C@H](N)C(=O)NCC(=O)NCC(=O)O (H-Leu-Gly-Gly-OH)
  Ki: 390 µM

## CC(C)C[C@H](N)C(=O)N1CCC[C@H]1C(=O)N[C@@H](CCCN=C(N)N)C(=O)O (H-Leu-Pro-Arg-OH)
  Ki: 100 µM

## CC(C)C[C@H](N)C(=O)N1CCC[C@H]1C(=O)O (H-Leu-Pro-OH)
  Ki: 180 µM

## CC(C)C[C@H](NC(=O)[C@H]([C@@H](C)O)N(C)C(=O)[C@@H](N)CC(C)C)C(=O)O (H-Leu-[NMeT]-Leu-OH)
  Ki: 110 µM

## C[C@H](NC(=O)[C@@H](N)CCCCN)C(N)=O (H-Lys-Ala-NH2)
  Ki: 6400 µM

## C[C@H](NC(=O)[C@@H](N)CCCCN)C(=O)O (H-Lys-Ala-OH)
  Ki: 340 µM

## NCCCC[C@H](N)C(=O)N[C@@H](CCC(=O)O)C(=O)O (H-Lys-Glu-OH)
  Ki: 1300 µM

## CC(C)C[C@H](NC(=O)[C@H](CC(C)C)NC(=O)[C@@H](N)Cc1ccccc1)C(=O)O (H-Phe-Leu-Leu-OH)
  Ki: 140 µM

## N=C(N)NCCC[C@H](NC(=O)[C@@H]1CCCN1)C(=O)O (H-Pro-Arg-OH)
  Ki: 2500 µM

## O=C(O)CNC(=O)CNC(=O)[C@@H]1CCCN1 (H-Pro-Gly-Gly-OH)
  Ki: 16000 µM

## NCCCC[C@H](NC(=O)[C@H](Cc1ccccc1)NC(=O)[C@@H]1CCCN1)C(=O)O (H-Pro-Phe-Lys-OH)
  Ki: 2000 µM

## O=C(O)[C@@H]1CCCN1C(=O)[C@@H]1CCCN1 (H-Pro-Pro-OH)
  Ki: 1200 µM

## C[C@H](NC(=O)[C@@H](N)COCc1ccccc1)C(=O)O (H-Ser(Bn)-Ala-OH)
  Ki: 90 µM

## C[C@@H](O)[C@H](N)C(=O)N[C@@H](CCCCN)C(=O)N[C@@H](Cc1ccc(O)cc1)C(=O)O (H-Thr-Lys-Tyr-OH)
  Ki: 1100 µM

## C[C@H](NC(=O)[C@@H](N)Cc1c[nH]c2ccccc12)C(=O)O (H-Trp-Ala-OH)
  Ki: 160 µM

## N[C@@H](Cc1c[nH]c2ccccc12)C(=O)N[C@@H](Cc1c[nH]c2ccccc12)C(=O)N[C@@H](Cc1c[nH]c2ccccc12)C(=O)O (H-Trp-Trp-Trp-OH)
  Ki: 170 µM

## N[C@@H](Cc1ccc(O)cc1)C(=O)NCC(=O)NCC(=O)O (H-Tyr-Gly-Gly-OH)
  Ki: 350 µM

## N[C@@H](Cc1ccc(O)cc1)C(=O)N[C@@H](Cc1ccccc1)C(=O)O (H-Tyr-Phe-OH)
  Ki: 140 µM

## CC[C@H](C)[C@H](NC(=O)[C@@H]1CCCN1C(=O)[C@@H](N)Cc1ccc(O)cc1)C(=O)O (H-Tyr-Pro-Ile-OH)
  Ki: 250 µM

## C[C@@H](NC(=O)[C@@H](N)Cc1ccc(O)cc1)C(=O)NCC(=O)O (H-Tyr-[dA]-Gly-OH)
  Ki: 14000 µM

## CC(C)C[C@H](NC(=O)[C@H](C)NC(=O)[C@@H](N)C(C)C)C(=O)O (H-Val-Ala-Leu-OH)
  Ki: 140 µM

## C[C@H](NC(=O)[C@@H](N)Cc1ccc(-c2ccccc2)cc1)C(=O)O (H-[Bip]-Ala-OH)
  Ki: 10 µM

## CC(C)C[C@@H](N)C(=O)NCC(=O)NCC(=O)O (H-[dL]-Gly-Gly-OH)
  Ki: 25000 µM

## CC(C)[C@H](NC(=O)[C@H](N)Cc1ccc(O)cc1)C(=O)NCC(=O)O (H-[dY]-Val-Gly-OH)
  Ki: 14000 µM

## C[C@H](N)C(=O)N1CCCC1C(=O)O (single isomer, unassigned)
  Ki: 15000 µM

## CSCC[C@H](NC(=O)[C@H](CCSC)NC(=O)[C@@H](N)CCSC)C(=O)O (stereo in doubt; 10)
  Ki: 100 µM

## C[C@H](N)C(=O)N[C@@H](C)C(=O)O (stereo in doubt; 47)
  Ki: 2100 µM

## O=C(O)C[C@H](NC(=O)[C@@H]1CCCN1)C(=O)O (stereo in doubt; 64)
  Ki: 9800 µM

## C[C@H](N)C(=O)N[C@@H](C)C(=O)O (stereo in doubt; 110)
  Ki: 140 µM

## CSCC[C@H](NC(=O)[C@H](CCSC)NC(=O)[C@@H](N)CCSC)C(=O)O (stereo in doubt; 119)
  Ki: 520 µM

## O=C(O)C[C@H](NC(=O)[C@@H]1CCCN1)C(=O)O (stereo in doubt; 121)
caco-2
  Ki: 9800 µM

## Cc1nnc(SCC2=C(C(=O)O)N3C(=O)[C@@H](NC(=O)Cn4cnnn4)[C@H]3SC2)s1 [CEFAZOLIN]
  Ki: > 30000 µM

## CO[C@@]1(NC(=O)Cc2cccs2)C(=O)N2C(C(=O)O)=C(COC(N)=O)CS[C@@H]21 [CEFOXITIN]
  Ki: 10000 µM

## COCC1=C(C(=O)O)N2C(=O)[C@@H](NC(=O)/C(=N\OC)c3csc(N)n3)[C@H]2SC1 [CEFPODOXIME]
  Ki: > 30000 µM

## CC1=C(C(=O)O)N2C(=O)[C@@H](NC(=O)[C@H](N)C3=CCC=CC3)[C@H]2SC1 [CEPHRADINE]
  Ki: 9800 µM

## Cc1onc(-c2ccccc2Cl)c1C(=O)N[C@@H]1C(=O)N2[C@@H]1SC(C)(C)[C@@H]2C(=O)O [CLOXACILLIN]
  Ki: 2500 µM

## Cc1onc(-c2c(F)cccc2Cl)c1C(=O)N[C@@H]1C(=O)N2[C@@H]1SC(C)(C)[C@@H]2C(=O)O [FLOXACILLIN]
  Ki: 3200 µM

## CC1(C)S[C@@H]2[C@H](NC(=O)COc3ccccc3)C(=O)N2[C@H]1C(=O)O [PENICILLIN V]
  Ki: 21000 µM

## CCN1CCN(C(=O)N[C@@H](C(=O)N[C@@H]2C(=O)N3[C@@H]2SC(C)(C)[C@@H]3C(=O)O)c2ccccc2)C(=O)C1=O [PIPERACILLIN]
  Ki: > 30000 µM

From ChEMBL document CHEMBL1140305, “Three-dimensional quantitative structure-activity relationship analyses of beta-lactam antibiotics and tripeptides as substrates of the mammalian H+/peptide cotransporter PEPT1” (J Med Chem, 2005)
